Source: PubChem BioAssay (NCI)
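A five-concentration, 48-hour dose response in 96-well plates underlies each endpoint, interpolated linearly between surrounding concentrations. TGI is the concentration that stops growth completely.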

Assays:
Test in all cases: inhibition of tumour cell growth, NCI panel, 48 h
[1] = tested on: 786-0 renal
[2] = tested on: A498 renal
[3] = tested on: A549 NSCLC
[4] = tested on: ACHN renal
[5] = tested on: CAKI-1 renal
[6] = tested on: CCRF-CEM leukemia
[7] = tested on: COLO 205 colon
[8] = tested on: DLD-1 colon
[9] = tested on: DMS 273 small cell lung
[10] = tested on: EKVX NSCLC
[11] = tested on: HCC-2998 colon
[12] = tested on: HCT-15 colon
[13] = tested on: HOP-62 NSCLC
[14] = tested on: HOP-92 NSCLC
[15] = tested on: HT29 colon
[16] = tested on: IGROV1 ovarian
[17] = tested on: K-562 leukemia
[18] = tested on: KM12 colon
[19] = tested on: KM20L2 colon
[20] = tested on: LOX IMVI melanoma
[21] = tested on: LXFL 529 NSCLC
[22] = tested on: M14 melanoma
[23] = tested on: M19-MEL melanoma
[24] = tested on: MALME-3M melanoma
[25] = tested on: MOLT-4 leukemia
[26] = tested on: NCI-H23 lung
[27] = tested on: NCI-H460 lung
[28] = tested on: NCI-H522 lung
[29] = tested on: OVCAR-3 ovarian
[30] = tested on: OVCAR-4 ovarian
[31] = tested on: OVCAR-5 ovarian
[32] = tested on: OVCAR-8 ovarian
[33] = tested on: RPMI-8226 leukemia
[34] = tested on: RXF 393 renal
[35] = tested on: SF-268 CNS
[36] = tested on: SF-295 CNS
[37] = tested on: SF-539 CNS
[38] = tested on: SK-MEL-2 melanoma
[39] = tested on: SK-MEL-28 melanoma
[40] = tested on: SK-MEL-5 melanoma
[41] = tested on: SK-OV-3 ovarian
[42] = tested on: SNB-19 CNS
[43] = tested on: SNB-75 CNS
[44] = tested on: SNB-78 CNS
[45] = tested on: SR leukemia
[46] = tested on: SW-620 colon
[47] = tested on: TK-10 renal
[48] = tested on: U251 CNS
[49] = tested on: UACC-257 melanoma
[50] = tested on: UACC-62 melanoma
[51] = tested on: UO-31 renal
[52] = tested on: XF 498 CNS
[53] = tested on: DMS 114 small cell lung
[54] = tested on: HCT-116 colon
[55] = tested on: HL-60(TB) leukemia
[56] = tested on: NCI-H226 lung
[57] = tested on: SN12C renal

Measured: TGI

CC1=C(O)C(=O)C2C(=O)C1C(C)C2c1ccc(C)cc1 (stereo not drawn)
> 100 µM: [1] | [2] | [3] | [4] | [5] | [6] | [7] | [8] | [9] | [10] | [11] | [12] | [13] | [14] | [15] | [16] | [17] | [18] | [19] | [20] | [21] | [22] | [23] | [24] | [25] | [26] | [27] | [28] | [29] | [30] | [31] | [32] | [33] | [34] | [35] | [36] | [37] | [38] | [39] | [40] | [41] | [42] | [43] | [44] | [45] | [46] | [47] | [48] | [49] | [50] | [51] | [52]

O=[N+]([O-])c1nccn1COCCI
> 100 µM: [1] | [3] | [4] | [5] | [6] | [7] | [8] | [53] | [9] | [10] | [54] | [12] | [55] | [13] | [14] | [15] | [16] | [17] | [18] | [19] | [20] | [21] | [22] | [23] | [24] | [25] | [56] | [26] | [27] | [28] | [29] | [30] | [31] | [32] | [33] | [35] | [36] | [37] | [38] | [39] | [40] | [41] | [57] | [42] | [43] | [44] | [45] | [46] | [47] | [48] | [49] | [50] | [51] | [52]

C=CCN1C2Cc3cc(OC)c(OC)cc3C1Cc1cc(OC)c(OC)cc12
> 100 µM: [1] | [2] | [3] | [4] | [5] | [6] | [8] | [10] | [11] | [12] | [13] | [15] | [17] | [18] | [19] | [21] | [22] | [24] | [25] | [26] | [27] | [28] | [29] | [30] | [31] | [32] | [33] | [35] | [36] | [38] | [39] | [40] | [57] | [42] | [43] | [44] | [46] | [47] | [48] | [49] | [51] | [52]
